# In patent US20190192559A1, “COMBINATION OF PROTEASOME INHIBITORS AND ANTI-CD30 ANTIBODIES” (Millennium Pharmaceuticals, Inc., priority 2016, published 2019):
# Experiments:
# Type in all cases: in vivo
# [1] = system: SUDHL-2 tumor cells (CD30+ human large cell lymphoma cell line); assay: SUDHL-2 subcutaneous xenograft tumor efficacy model in CB17-SCID mice; conditions: for Average tumor volume day 24: in mm³ (unit assumed)
# Protocol: SUDHL-2 (2×10^6) tumor cells in RPMI-1640 media were aseptically injected into the subcutaneous space in the right dorsal flank of CB17-SCID female mice (Shanghai SLAC Laboratory Animal Co., LTD). SUDHL-2 is a CD30+ human large cell lymphoma cell line and was obtained from ATCC (Manassas, Va.).
# (§1) Brentuximab vedotin (SGN-35), one vial (Seattle Genetics, 50 mg) was reconstituted in 50 ml 0.9% saline to give a stock solution of 1 mg/ml. The stock solution was then diluted again in 0.9% saline to reach the desired concentration and administered by intraperitoneal injection (IP) on q4D schedule for 21 days (SR-786), 14 days (Karpas-299) or 24 days (SUDHL-2) at 0.2 mg/kg, 0.4 mg/kg and 0.8 mg/kg.
# (§2) The compound of formula (IIIa) was formulated in either 5% hydroxypropyl-beta-cyclodextrin (for SR-786 and Karpas-299 studies) or in 20% hydroxypropyl-beta-cyclodextrin for SUDHL-2 study. The amounts listed below in Tables 1a-3b are calculated based on the compound of formula (IV). The drug was administered by IV injection (1 cc syringe, 20-22 gauge) on BIW schedule at either 2 mg/kg or 8 mg/kg for 21 days (SR-786), 14 days (Karpas-299), or 24 days (SUDHL-2).
# (§3) Tumors were measured twice weekly using a vernier caliper. Tumor volumes were calculated using standard procedures (0.5×(length×width^2)). When the tumors reached a volume of approximately 200 mm^3 for SR-786, 150 mm^3 for Karpas-299 and SUDHL-2, mice were randomized into 7-8 groups as described in the tables below, and injected with vehicle, compound of formula (IV) or SGN-35 or the combination of compound of formula (IV) with SGN-35, at various doses as described below in Tables 1a, 2a and 3a. Tumor size and body weight were measured approximately twice a week for the duration of the study. Mice were euthanized when their tumor volume reached 10% of their body weight, or when the average tumor volume of a treatment or control group reached approximately 2000 mm^3. Tumor growth continued to be monitored after the dosing period in this study. Tumor volume on study day 21 for all groups is shown in table 1a for SR-786 study; on study day 14 for all groups for Karpas-299 study in table 2a and on study day 24 for all groups for SUDHL-2 study in table 3a. Average tumor volume is reported as a function of time for all groups in FIG. 1 (SR-786), FIG. 2 (Karpas-299) and FIG. 3 (SUDHL-2). Tumor volumes were reported till the end of the study to capture re-growth.
# (§4) The synergy analysis is based on the tumor volume data from day 0 to 21 for SR-786, days 0 to 14 for Karpas-299 and days 0 to 24 for SUDHL-2 and presented in table 1b, 2b and 3b. Volume measurements below 25 cubic mm are excluded from the analysis because very low volumes cannot be measured accurately. The remaining measurements are log transformed and fit to a simple linear model with the measurement day as a covariate. The data are fit separately for the different animals to yield an estimated tumor growth rate for each animal in each treatment group. Based on the growth rates, the synergy score for the combination of agents A and B is defined as
# (§5) 100*(mean(μAB)−mean(μA)−mean(μB)+mean(μctl))/mean(μctl):
# (§6) where μAB, μA, μB, and μctl are the mean tumor growth rates for animals in the combination group, the A group, the B group, and the control group, respectively. The standard error of the synergy score is computed based on the variation in the growth rates among the animals. […] If the P-value is above 0.05, then the combination is considered to be additive. If the P-value is below 0.05, and the synergy score is less than zero, then the combination is considered to be synergistic. […] Otherwise, the combination is classified as antagonistic.
# [2] = system: SR-786 tumor cells (CD30+ human large T cell lymphoma cell line); assay: SR-786 subcutaneous xenograft tumor efficacy model in CB17 SCID mice; conditions: for Average tumor volume day 21: in mm³ (unit assumed)
# Protocol: (§7) SR-786 (6.0×10^6) tumor cells in RPMI-1640 media were aseptically injected into the subcutaneous space in the right dorsal flank of CB17 SCID female mice (Charles River Lab) using a 26 G ⅝ needle. SR-786 is a CD30+ human large T cell lymphoma cell line and was obtained from DSMZ (Braunschweig, Germany).
# as §1, §2, §3, §4, §5, §6
# [3] = system: Karpas-299 tumor cells (CD30+ human large T cell lymphoma cell line); assay: Karpas-299 subcutaneous xenograft tumor efficacy model in CB17 SCID mice; conditions: for Average tumor volume day 14: in mm³ (unit assumed)
# Protocol: as §7, with “Karpas-299 (0.5×10^6)” for “SR-786 (6.0×10^6)”, “Rive” for “River”, “Karpas-299” for “SR-786”
# as §1, §2, §3, §4, §5, §6
# [4] = compound of formula (IV) 2 mg/kg BIW IV
# [5] = compound of formula (IV) 2 mg/kg IV
# [6] = compound of formula (IV) 8 mg/kg BIW IV
# [7] = compound of formula (IV) 8 mg/kg IV
# [8] = SGN-35 0.2 mg/kg IP, compared to the control vehicle group
# [9] = SGN-35 0.4 mg/kg IP, compared to the control vehicle group
# [10] = SGN-35 0.8 mg/kg IP, compared to the control vehicle group
compound,measurement,setting,value
"CC(C)C[C@H](NC(=O)CNC(=O)c1cc(Cl)ccc1Cl)B(O)O [compound of formula (IV), [(1R)-1-({[(2,5-dichlorobenzoyl)amino]acetyl}amino)-3-methylbutyl]boronic acid]",Average tumor volume day 24,[1]; [4],1449.3
same,tumor growth inhibition,[1]; [5],6%
same,Average tumor volume day 24,[1]; [6],1129.5
same,tumor growth inhibition,[1]; [7],26%
same,day on which group was sacrificed,[1]; two compound of formula (IV) treated groups (Group 2 and 3; 2 mg/kg and 8 mg/kg),27 days
same,Average tumor volume day 21,[2]; [4],1221.5
same,tumor growth inhibition,[2]; [5],10%
same,Average tumor volume day 21,[2]; [6],500.6
same,tumor growth inhibition,[2]; [7],63%
same,Average tumor volume day 14,[3]; [4],1600
same,tumor growth inhibition,[3]; [5],−16%
same,Average tumor volume day 14,[3]; [6],1971.5
same,tumor growth inhibition,[3]; [7],−43%
same,day on which group was sacrificed due to high tumor burden,[3]; compound of formula (IV) single agent groups (2 mg/kg and 8 mg/kg),14 days
SGN-35,day on which group was sacrificed,[1]; SGN-35 0.2 mg/kg (Group 4),27 days
same,tumor growth inhibition,[1]; [8],12%
same,Average tumor volume day 24,[1]; SGN-35 0.2 mg/kg Q4D IP,1352.3
same,day on which group was sacrificed,[1]; SGN-35 0.4 mg/kg (Group 5),45 days
same,tumor growth inhibition,[1]; [9],50%
same,Average tumor volume day 24,[1]; SGN-35 0.4 mg/kg Q4D IP,774.2
same,day on which group was sacrificed,[1]; SGN-35 0.8 mg/kg (Group 6),59 days
same,tumor growth inhibition,[1]; [10],82%
same,Average tumor volume day 24,[1]; SGN-35 0.8 mg/kg Q4D IP,274.9
same,tumor growth inhibition,[2]; SGN-35 0.2 mg/kg IP,3%
same,Average tumor volume day 21,[2]; SGN-35 0.2 mg/kg Q4D IP,1330
same,tumor growth inhibition,[2]; SGN-35 0.4 mg/kg IP,70%
same,Average tumor volume day 21,[2]; SGN-35 0.4 mg/kg Q4D IP,409.9
same,tumor growth inhibition,[2]; SGN-35 0.8 mg/kg IP,100%
same,Average tumor volume day 21,[2]; SGN-35 0.8 mg/kg Q4D IP,0
same,tumors found in mice on day 76,[2]; SGN-35 0.8 mg/kg single agent,No tumors were found in any mice
same,mice tumor free on day 21 post treatment,[2]; SGN-35 0.8 mg/kg single agent (Group 6),7/7
same,tumor growth inhibition,[3]; [8],52%
same,Average tumor volume day 14,[3]; SGN-35 0.2 mg/kg Q4D IP,647.4
same,day on which group was sacrificed,[3]; SGN-35 0.2 mg/kg single agent,25 days
same,tumor growth inhibition,[3]; [9],100%
same,Average tumor volume day 14,[3]; SGN-35 0.4 mg/kg Q4D IP,0
same,mice tumor free at day 14,[3]; SGN-35 0.4 mg/kg single agent,All the mice
same,tumor growth inhibition,[3]; [10],100%
same,Average tumor volume day 14,[3]; SGN-35 0.8 mg/kg Q4D IP,0
same,mice tumor free at day 14,[3]; SGN-35 0.8 mg/kg single agent,All the mice
